Test results taken from ChEMBL document CHEMBL1201862, “PubChem BioAssay data set” (2004).
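Exposure lasted 48 hours, with cells grown in 96-well plates and compounds tested at five concentrations. Abbreviation: GI50, concentration required for 50% inhibition of growth.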 Active and inactive are the calls of the source. Cut-off read from the data, not from the text of the source: active = GI50 up to about 1.1 µM and inactive = higher.

What was measured:
Assay in all cases: DTP human tumour cell line panel, 48 h
[1] = system: NCI-H226
[2] = system: A498
[3] = system: K562
[4] = system: CAKI-1
[5] = system: HT-29
[6] = system: SF-268
[7] = system: NCI-H23
[8] = system: UO-31
[9] = system: SR
[10] = system: MDA-MB-231
[11] = system: HCT-116
[12] = system: HCT-15
[13] = system: MDA-MB-435
[14] = system: OVCAR-5
[15] = system: MCF7
[16] = system: OVCAR-3
[17] = system: SN12C
[18] = system: Malme-3M
[19] = system: HL-60
[20] = system: Hs-578T
[21] = system: SK-OV-3
[22] = system: HOP-62
[23] = system: BT-549
[24] = system: SK-MEL-2
[25] = system: NCI-H522
[26] = system: 786-0
[27] = system: NCI/ADR-RES
[28] = system: SW-620
[29] = system: UACC-257
[30] = system: IGROV-1
[31] = system: MDA-N
[32] = system: CCRF-CEM
[33] = system: U-251
[34] = system: PC-3
[35] = system: RXF 393
[36] = system: ACHN
[37] = system: SK-MEL-5
[38] = system: OVCAR-8
[39] = system: LOX IMVI
[40] = system: SF-295
[41] = system: RPMI-8226
[42] = system: HCC 2998
[43] = system: SNB-75
[44] = system: T47D
[45] = system: TK-10
[46] = system: A549
[47] = system: SF-539
[48] = system: SK-MEL-28
[49] = system: MOLT-4
[50] = system: KM12
[51] = system: OVCAR-4
[52] = system: UACC-62
[53] = system: COLO 205
[54] = system: SNB-19
[55] = system: EKVX
[56] = system: HOP-92
[57] = system: NCI-H460
[58] = system: M14
[59] = system: DU-145

With `OCCCCCNc1cc(O)nc(O)n1` the GI50 [1] was > 100 µM (inactive), the GI50 [2] was > 100 µM (inactive) and the GI50 [3] was > 100 µM (inactive). The GI50 [4] was > 100 µM (inactive), the GI50 [5] was > 100 µM (inactive) and the GI50 [6] was > 100 µM (inactive). For the same compound, the GI50 [7] was > 100 µM (inactive), the GI50 [8] was > 100 µM (inactive) and the GI50 [9] was > 100 µM (inactive). The GI50 [10] was > 100 µM (inactive), the GI50 [11] was > 100 µM (inactive) and the GI50 [12] was > 100 µM. For the same compound, the GI50 [13] was > 100 µM (inactive), the GI50 [14] was > 100 µM (inactive) and the GI50 [15] was > 100 µM (inactive). The GI50 [16] was > 100 µM (inactive), the GI50 [17] was > 100 µM (inactive) and the GI50 [18] was > 100 µM (inactive). For the same compound, the GI50 [19] was > 100 µM (inactive), the GI50 [20] was > 100 µM (inactive) and the GI50 [21] was > 100 µM (inactive). For the same compound, the GI50 [22] was > 100 µM (inactive), the GI50 [23] was > 100 µM (inactive) and the GI50 [24] was > 100 µM (inactive). The GI50 [25] was > 100 µM (inactive), the GI50 [26] was > 100 µM (inactive) and the GI50 [27] was > 100 µM (inactive). The GI50 [28] was > 100 µM (inactive), the GI50 [29] was > 100 µM (inactive) and the GI50 [30] was > 100 µM (inactive). For the same compound, the GI50 [31] was > 100 µM (inactive), the GI50 [32] was > 100 µM (inactive) and the GI50 [33] was > 100 µM (inactive). For the same compound, the GI50 [34] was > 100 µM (inactive), the GI50 [35] was > 100 µM (inactive) and the GI50 [36] was > 100 µM (inactive). For the same compound, the GI50 [37] was > 100 µM (inactive), the GI50 [38] was > 100 µM (inactive) and the GI50 [39] was > 100 µM (inactive). The GI50 [40] was > 100 µM (inactive), the GI50 [41] was > 100 µM (inactive) and the GI50 [42] was > 100 µM (inactive). The GI50 [43] was > 100 µM (inactive), the GI50 [44] was > 100 µM (inactive) and the GI50 [45] was > 100 µM (inactive). The GI50 [46] was > 100 µM (inactive), the GI50 [47] was > 100 µM (inactive) and the GI50 [48] was > 100 µM (inactive). The GI50 [49] was > 100 µM (inactive), the GI50 [50] was > 100 µM (inactive) and the GI50 [51] was > 100 µM (inactive). For the same compound, the GI50 [52] was > 100 µM (inactive), the GI50 [53] was > 100 µM (inactive) and the GI50 [54] was > 100 µM (inactive). For the same compound, the GI50 [55] was > 100 µM (inactive), the GI50 [56] was > 100 µM (inactive) and the GI50 [57] was > 100 µM (inactive). For the same compound, the GI50 [58] was > 100 µM (inactive).

With `N#Cc1c(-c2ccc(Cl)cc2)cc(-c2ccc(Nc3ccnc4cc(C(F)(F)F)ccc34)cc2)nc1N` the GI50 [1] was 24.7 µM (inactive), the GI50 [2] was 19.6 µM (inactive) and the GI50 [3] was 14.5 µM (inactive). The GI50 [4] was 57.7 µM (inactive), the GI50 [5] was 16.6 µM (inactive) and the GI50 [6] was 39.1 µM (inactive). For the same compound, the GI50 [7] was 57.5 µM (inactive), the GI50 [8] was 15.7 µM (inactive) and the GI50 [9] was 3.74 µM (inactive). The GI50 [10] was 28.7 µM (inactive), the GI50 [59] was 28.1 µM (inactive) and the GI50 [11] was 10.6 µM (inactive). For the same compound, the GI50 [12] was 17.9 µM, the GI50 [13] was 19.5 µM (inactive) and the GI50 [14] was 30.2 µM (inactive). For the same compound, the GI50 [15] was 28.8 µM (inactive), the GI50 [17] was 22 µM (inactive) and the GI50 [18] was 63.2 µM (inactive). For the same compound, the GI50 [21] was 39.6 µM (inactive), the GI50 [22] was 19.7 µM (inactive) and the GI50 [23] was 63 µM (inactive). For the same compound, the GI50 [24] was 27.8 µM (inactive), the GI50 [25] was 31.4 µM (inactive) and the GI50 [26] was 15 µM (inactive). The GI50 [27] was > 100 µM (inactive), the GI50 [28] was 32.3 µM (inactive) and the GI50 [29] was > 100 µM (inactive). For the same compound, the GI50 [30] was 29.2 µM (inactive), the GI50 [31] was 32.8 µM (inactive) and the GI50 [32] was 12.4 µM (inactive). The GI50 [33] was 18.7 µM (inactive), the GI50 [34] was 32.9 µM (inactive) and the GI50 [35] was 22.1 µM (inactive). For the same compound, the GI50 [36] was 17.4 µM (inactive), the GI50 [37] was 25.3 µM (inactive) and the GI50 [38] was > 100 µM (inactive). The GI50 [39] was 3.72 µM (inactive), the GI50 [40] was 19.3 µM (inactive) and the GI50 [41] was 23.4 µM (inactive). For the same compound, the GI50 [42] was 64.3 µM (inactive), the GI50 [43] was 23 µM (inactive) and the GI50 [44] was 18.5 µM (inactive). The GI50 [45] was 31.2 µM (inactive), the GI50 [46] was 83.4 µM (inactive) and the GI50 [47] was 18.5 µM (inactive). The GI50 [48] was 22.1 µM (inactive), the GI50 [49] was 14.6 µM (inactive) and the GI50 [50] was > 100 µM (inactive). The GI50 [51] was 17.9 µM (inactive), the GI50 [52] was 22.3 µM (inactive) and the GI50 [53] was 29.4 µM (inactive). The GI50 [54] was 16.9 µM (inactive), the GI50 [55] was 67 µM (inactive) and the GI50 [57] was 32.8 µM (inactive). The GI50 [58] was 19.5 µM (inactive).
